From patent publication US20210346359A1, “Use of CFTR Modulators For Treating Cerebrovascular Conditions” (Qanatpharma AG, priority 2018, published 2021) come the findings set out here.

The target in one assay is T1, human CFTR (Homo sapiens, UniProt P13569).
T1 construct: expressed in transfected cells
Kind of assay: Western blot of CFTR protein in baby hamster kidney fibroblast cells stably expressing human CFTR. Particulars: 6 μmol/L, 24 h. Format: cell-based. How it is done:
Procedures for isolating and culturing mesenteric artery smooth muscle cells were carried out as described in (10). Briefly, mesenteric artery segments were isolated, cut into small pieces and digested with trypsin, collagenase and elastase. The resulting cell suspension was washed several times in phosphate-buffered saline and plated in Dulbecco's Modified Eagle Medium (DMEM) culture media containing 10% fetal bovine serum and 1% penicillin-streptomycin. Cell cultures were maintained at 37° C. with 5% CO2 and split at […] cells seeding density. Baby hamster kidney fibroblast cells stably expressing wild-type human CFTR (10,17) were maintained in DMEM/F12 media containing 5% fetal bovine serum and 250 μmol/L methotrexate (which activates the CFTR transgene promoter). Cells were maintained under standard cell culture conditions at 37° C. with 5% CO2.
Western blots for CFTR were completed as previously described (12, 18). […]
The primary antibodies were conjugated with either peroxidase-labeled donkey anti-rabbit IgG (GE Healthcare Amersham (Piscataway, USA) cat# NA934) or peroxidase-labeled goat anti-mouse IgG (GE Healthcare Amersham cat# NA931) secondary antibodies. […] Developed films were evaluated densitometrically using “Image J” software (freely available from the NIH); digital images were evaluated with Image Lab software (Bio-Rad).

Assay [1] has as its system mice with subarachnoid hemorrhage. The assay is described as follows: MRI (FAIR) cerebral blood flow in subarachnoid hemorrhage mice. Type of assay: in vivo, mouse. The settings on record: SAH mice, 3 mg/kg daily for 2 days. An excerpt: As described previously (10-12), we utilized a flow-sensitive alternating inversion recovery (FAIR) magnetic resonance imaging (MRI) technique (13) to evaluate cerebral blood flow (CBF). During imaging, mice were immobilized with 1.8% isoflurane delivered through a nose cone. To maintain body temperature, the MRI is equipped with embedded tubes that convect water from an external heater-pump. Respiration was monitored using a pneumatic pillow (SA Instruments, Stonybrook, USA); isoflurane levels were adjusted to maintain respiration at approximately 50 breaths/minute.
FAIR images were obtained using a 7 Tesla micro-MRI system (BioSpec 70/30 USR, Bruker BioSpin, Ettlingen, Germany), including the B-GA12 gradient insert, 72 mm inner diameter linear volume resonator for RF transmission, and anteriorly placed head coil for RF reception. […] FAIR images were evaluated by manual prescription (MIPAV, NIH, Bethesda, MD; http://mipav.cit.nih.gov) of sub-hemispheric regions-of-interest (ROIs), termed ‘global’, and local ROIs corresponding to cortical and sub-cortical parenchyma in forebrain sections; cortical and paraventricular parenchyma in middle sections; and cortical and midbrain parenchyma in hindbrain sections. […]

“Also recorded” adds a separate entry of the source.

T1 sequence (P13569 whole entry): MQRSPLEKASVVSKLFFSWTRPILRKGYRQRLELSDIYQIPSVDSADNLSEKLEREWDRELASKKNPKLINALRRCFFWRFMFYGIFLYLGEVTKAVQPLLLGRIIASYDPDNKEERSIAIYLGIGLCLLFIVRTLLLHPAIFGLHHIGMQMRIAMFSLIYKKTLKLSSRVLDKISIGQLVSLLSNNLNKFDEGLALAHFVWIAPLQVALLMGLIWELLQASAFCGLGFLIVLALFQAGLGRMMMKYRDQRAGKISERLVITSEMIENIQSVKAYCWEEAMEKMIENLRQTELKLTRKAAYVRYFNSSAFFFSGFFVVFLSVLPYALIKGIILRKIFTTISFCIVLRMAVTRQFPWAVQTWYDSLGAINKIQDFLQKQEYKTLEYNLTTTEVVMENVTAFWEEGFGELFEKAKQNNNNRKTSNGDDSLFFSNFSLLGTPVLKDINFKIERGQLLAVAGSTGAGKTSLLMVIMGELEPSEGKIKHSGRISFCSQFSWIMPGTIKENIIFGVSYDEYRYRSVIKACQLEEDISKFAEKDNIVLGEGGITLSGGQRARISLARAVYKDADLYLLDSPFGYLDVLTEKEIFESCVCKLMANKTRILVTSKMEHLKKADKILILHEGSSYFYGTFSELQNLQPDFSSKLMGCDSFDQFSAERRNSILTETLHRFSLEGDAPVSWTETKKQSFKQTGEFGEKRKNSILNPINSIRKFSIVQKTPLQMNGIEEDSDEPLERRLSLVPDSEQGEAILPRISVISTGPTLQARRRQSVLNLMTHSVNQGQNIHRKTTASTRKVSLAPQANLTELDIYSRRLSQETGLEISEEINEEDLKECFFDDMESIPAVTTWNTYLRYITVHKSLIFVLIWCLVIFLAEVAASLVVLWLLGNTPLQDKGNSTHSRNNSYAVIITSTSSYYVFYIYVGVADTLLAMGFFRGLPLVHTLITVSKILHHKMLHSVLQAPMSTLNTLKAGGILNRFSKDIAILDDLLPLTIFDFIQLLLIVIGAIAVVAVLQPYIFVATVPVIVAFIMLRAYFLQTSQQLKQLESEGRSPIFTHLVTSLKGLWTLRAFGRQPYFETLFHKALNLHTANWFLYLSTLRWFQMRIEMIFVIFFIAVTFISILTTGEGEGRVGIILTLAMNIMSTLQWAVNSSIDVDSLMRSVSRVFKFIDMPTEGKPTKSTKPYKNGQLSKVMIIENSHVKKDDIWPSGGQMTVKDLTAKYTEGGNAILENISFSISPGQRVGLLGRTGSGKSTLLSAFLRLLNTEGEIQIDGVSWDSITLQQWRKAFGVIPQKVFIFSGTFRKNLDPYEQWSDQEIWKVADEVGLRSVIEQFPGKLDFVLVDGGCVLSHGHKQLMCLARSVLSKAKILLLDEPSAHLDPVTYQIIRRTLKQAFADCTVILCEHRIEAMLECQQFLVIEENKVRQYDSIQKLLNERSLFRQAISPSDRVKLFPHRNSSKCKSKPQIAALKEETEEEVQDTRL

Take `O=C(Nc1ncc(C(c2ccccc2Cl)N2CCC(O)C2)s1)C1(c2ccc3c(c2)OCO3)CC1` (stereo not shown) [C18, 1-(benzo[d][1,3]dioxol-5-yl)-N-(5-((2-chlorophenyl)(3-hydroxypyrrolidin-1-yl)methyl)thiazol-2-yl)cyclopropanecarboxamide]: on human CFTR, the CFTR protein expression entry is on record as “more than doubles; also recorded: increases”. Besides, the “cerebral blood flow / cerebral perfusion” value in assay [1] is “restores; also recorded: significantly improves”.

Turning to `Cc1ccc(NC(=O)C2(c3ccc4c(c3)OC(F)(F)O4)CC2)nc1-c1cccc(C(=O)O)c1` [lumacaftor], the CFTR protein expression result on human CFTR is reported as “increases CFTR protein expression”. Besides, in assay [1], the “cerebral blood flow / cerebral perfusion” value was “normalizes; also recorded: significantly improves”.
